Measurements from ChEMBL document CHEMBL3046407, “Toxicity of monoterpenes against larvae and adults of Colorado potato beetle, Leptinotarsa decemlineata Say (Coleoptera: Chrysomelidae)” (2007).

Experiments:
Format in all cases: functional
[1] = test system: Leptinotarsa decemlineata; assay: Insecticidal activity against second-instar larval stage of Leptinotarsa decemlineata infested potato leaves assessed as mortality at 20 ul after 96 hr (reference value: 3.3 +/- 3.3%)
[2] = test system: Leptinotarsa decemlineata; assay: Insecticidal activity against second-instar larval stage of Leptinotarsa decemlineata infested potato leaves assessed as mortality at 20 ul after 48 hr (reference value: 3.3 +/- 3.3%)
[3] = test system: Leptinotarsa decemlineata; assay: Insecticidal activity against second-instar larval stage of Leptinotarsa decemlineata infested potato leaves assessed as mortality at 20 ul after 24 hr (reference value: 3.3 +/- 3.3%)
[4] = test system: Leptinotarsa decemlineata; assay: Insecticidal activity against second-instar larval stage of Leptinotarsa decemlineata infested potato leaves assessed as mortality at 10 ul after 12 hr relative to control
[5] = test system: Leptinotarsa decemlineata; assay: Insecticidal activity against adult Leptinotarsa decemlineata infested potato leaves assessed as mortality at 20 ul after 96 hr relative to control
[6] = test system: Leptinotarsa decemlineata; assay: Insecticidal activity against adult Leptinotarsa decemlineata infested potato leaves assessed as mortality at 20 ul after 48 hr relative to control
[7] = test system: Leptinotarsa decemlineata; assay: Insecticidal activity against adult Leptinotarsa decemlineata infested potato leaves assessed as mortality at 20 ul after 24 hr relative to control
[8] = test system: Leptinotarsa decemlineata; assay: Insecticidal activity against adult Leptinotarsa decemlineata infested potato leaves assessed as mortality at 20 ul after 12 hr relative to control
[9] = test system: Leptinotarsa decemlineata; assay: Insecticidal activity against adult Leptinotarsa decemlineata infested potato leaves assessed as mortality at 10 ul after 96 hr relative to control
[10] = test system: Leptinotarsa decemlineata; assay: Insecticidal activity against adult Leptinotarsa decemlineata infested potato leaves assessed as mortality at 10 ul after 48 hr relative to control
[11] = test system: Leptinotarsa decemlineata; assay: Insecticidal activity against adult Leptinotarsa decemlineata infested potato leaves assessed as mortality at 10 ul after 24 hr relative to control
[12] = test system: Leptinotarsa decemlineata; assay: Insecticidal activity against adult Leptinotarsa decemlineata infested potato leaves assessed as mortality at 10 ul after 12 hr relative to control
[13] = test system: Leptinotarsa decemlineata; assay: Insecticidal activity against second-instar larval stage of Leptinotarsa decemlineata infested potato leaves assessed as mortality at 20 ul after 12 hr relative to control
[14] = test system: Leptinotarsa decemlineata; assay: Insecticidal activity against second-instar larval stage of Leptinotarsa decemlineata infested potato leaves assessed as mortality at 10 ul after 96 hr (reference value: 3.3 +/- 3.3%)
[15] = test system: Leptinotarsa decemlineata; assay: Insecticidal activity against second-instar larval stage of Leptinotarsa decemlineata infested potato leaves assessed as mortality at 10 ul after 48 hr (reference value: 3.3 +/- 3.3%)
[16] = test system: Leptinotarsa decemlineata; assay: Insecticidal activity against second-instar larval stage of Leptinotarsa decemlineata infested potato leaves assessed as mortality at 10 ul after 24 hr (reference value: 3.3 +/- 3.3%)
[17] = test system: Leptinotarsa decemlineata; assay: Insecticidal activity against first-instar larval stage of Leptinotarsa decemlineata infested potato leaves assessed as mortality at 20 ul after 96 hr relative to control
[18] = test system: Leptinotarsa decemlineata; assay: Insecticidal activity against first-instar larval stage of Leptinotarsa decemlineata infested potato leaves assessed as mortality at 20 ul after 48 hr relative to control
[19] = test system: Leptinotarsa decemlineata; assay: Insecticidal activity against first-instar larval stage of Leptinotarsa decemlineata infested potato leaves assessed as mortality at 20 ul after 24 hr relative to control
[20] = test system: Leptinotarsa decemlineata; assay: Insecticidal activity against first-instar larval stage of Leptinotarsa decemlineata infested potato leaves assessed as mortality at 20 ul after 12 hr relative to control
[21] = test system: Leptinotarsa decemlineata; assay: Insecticidal activity against first-instar larval stage of Leptinotarsa decemlineata infested potato leaves assessed as mortality at 10 ul after 96 hr relative to control
[22] = test system: Leptinotarsa decemlineata; assay: Insecticidal activity against first-instar larval stage of Leptinotarsa decemlineata infested potato leaves assessed as mortality at 10 ul after 48 hr relative to control
[23] = test system: Leptinotarsa decemlineata; assay: Insecticidal activity against first-instar larval stage of Leptinotarsa decemlineata infested potato leaves assessed as mortality at 10 ul after 12 hr relative to control
[24] = test system: Leptinotarsa decemlineata; assay: Insecticidal activity against first-instar larval stage of Leptinotarsa decemlineata infested potato leaves assessed as mortality at 10 ul after 24 hr relative to control
[25] = test system: Leptinotarsa decemlineata; assay: Insecticidal activity against third-instar larval stage of Leptinotarsa decemlineata infested potato leaves assessed as mortality at 20 ul after 96 hr (reference value: 3.3 +/- 3.3%)
[26] = test system: Leptinotarsa decemlineata; assay: Insecticidal activity against third-instar larval stage of Leptinotarsa decemlineata infested potato leaves assessed as mortality at 20 ul after 48 hr (reference value: 3.3 +/- 3.3%)
[27] = test system: Leptinotarsa decemlineata; assay: Insecticidal activity against third-instar larval stage of Leptinotarsa decemlineata infested potato leaves assessed as mortality at 20 ul after 24 hr relative to control
[28] = test system: Leptinotarsa decemlineata; assay: Insecticidal activity against third-instar larval stage of Leptinotarsa decemlineata infested potato leaves assessed as mortality at 20 ul after 12 hr relative to control
[29] = test system: Leptinotarsa decemlineata; assay: Insecticidal activity against third-instar larval stage of Leptinotarsa decemlineata infested potato leaves assessed as mortality at 10 ul after 96 hr (reference value: 3.3 +/- 3.3%)
[30] = test system: Leptinotarsa decemlineata; assay: Insecticidal activity against third-instar larval stage of Leptinotarsa decemlineata infested potato leaves assessed as mortality at 10 ul after 48 hr (reference value: 3.3 +/- 3.3%)
[31] = test system: Leptinotarsa decemlineata; assay: Insecticidal activity against third-instar larval stage of Leptinotarsa decemlineata infested potato leaves assessed as mortality at 10 ul after 24 hr relative to control
[32] = test system: Leptinotarsa decemlineata; assay: Insecticidal activity against third-instar larval stage of Leptinotarsa decemlineata infested potato leaves assessed as mortality at 10 ul after 12 hr relative to control

Structure (SMILES) | mortality [1] [%] | mortality [2] [%] | mortality [3] [%] | mortality [4] [%] | mortality [5] [%] | mortality [6] [%] | mortality [7] [%] | mortality [8] [%] | mortality [9] [%] | mortality [10] [%] | mortality [11] [%] | mortality [12] [%] | mortality [13] [%] | mortality [14] [%] | mortality [15] [%] | mortality [16] [%] | mortality [17] [%] | mortality [18] [%] | mortality [19] [%] | mortality [20] [%] | also measured
C=C(C)C1CCC2(C)OC2C1 (stereo unspecified) [LIMONENE OXIDE] | 96.7 | 93.3 | 93.3 | 30 | 56.7 | 40 | 20 | 16.7 | 30 | 20 | 16.7 | 10 | 60 | 90 | 83.3 | 73.3 | 100 | 100 | 93.3 | 70 | mortality [21]: 93.3%; mortality [22]: 80%; mortality [23]: 26.7%; mortality [24]: 53.3%; mortality [25]: 56.7%; mortality [26]: 46.7%; mortality [27]: 33.3%; mortality [28]: 13.3%; mortality [29]: 46.7%; mortality [30]: 43.3%; mortality [31]: 23.3%; mortality [32]: 13.3%
C=CC(C)(O)CCC=C(C)C (stereo unspecified) [LINALOOL] | 100 | 100 | 93.3 | 20 | 100 | 100 | 73.3 | 30 | 90 | 83.3 | 73.3 | 16.7 | 36.7 | 100 | 76.7 | 73.3 | 100 | 100 | 93.3 | 40 | mortality [21]: 100%; mortality [22]: 63.3%; mortality [23]: 26.7%; mortality [24]: 53.3%; mortality [25]: 40%; mortality [26]: 36.7%; mortality [27]: 33.3%; mortality [28]: 6.7%; mortality [29]: 23.3%; mortality [30]: 20%; mortality [31]: 13.3%; mortality [32]: 3.3%
C=CC(=C)CCC=C(C)C [MYRCENE] | 100 | 100 | 90 | 56.7 | 100 | 96.7 | 90 | 73.3 | 100 | 100 | 93.3 | 46.7 | 73.3 | 93.3 | 93.3 | 93.3 | 100 | 100 | 90 | 36.7 | mortality [21]: 93.3%; mortality [22]: 93.3%; mortality [23]: 20%; mortality [24]: 80%; mortality [25]: 76.7%; mortality [26]: 73.3%; mortality [27]: 70%; mortality [28]: 36.7%; mortality [29]: 60%; mortality [30]: 56.7%; mortality [31]: 53.3%; mortality [32]: 26.7%
